Literature values in patent US8211842B2, “Preventive and/or curative agent for cleaning materials that are brought into contact with water” (priority 2006, dated 2012).

Experiments:
Details in all cases: standard AFNOR NF T 72-151
[1] = system: Escherichia coli 54127
[2] = system: Pseudomonas aeruginosa A22
[3] = system: Staphylococcus aureus 53164
[4] = system: Streptococcus faecalis 5855
[5] = system: Mycobactenum smegmatis 7326

Measured: dose effective as a bactericide

CCCCCCCCCC[N+](C)(C)CCCCCCCCCC.[Cl-] [didecyl dimethylammonium chloride]
50 ppm: [1] | [2] | [3] | [4] | [5]
